The record followed here is patent US8236860B2, “Inhibition of the survival of pancreatic cancer by cyclohexenone compounds from Antrodia camphorata” (Golden Biotechnology Corporation, priority 2009, dated 2012).

The test has as its system pancreatic cancer cell line BxPC-3. The test is described as follows: In vitro survival assay (MTT) for anti-pancreatic cancer effects. The format is cell-based. The note with it: Homo sapiens, BxPC-3 cells, 48 hours treatment, 0.03-30 μg/ml, read-out: IC50 (half inhibition concentration), survival of pancreatic cancer cells. The method, then: The compound 4--2,3-dimethoxy-6-methyl-5-(3,7,11-trimethyl-dodeca-2,6,10-trienyl)-cyclohex-2-enone of the formula (2) is explained below as an example for the present invention. The anti-cancer effects of 4--2,3-dimethoxy-6-methyl-5-(3,7,11-trimethyl-dodeca-2,6,10-trienyl)-cyclohex-2-enone was assessed using 3-(4,5-dimethylthiazol-2-yl)-2,5-diphenyltetrazolium bromide MTT) assay according to the anti-cancer drug screening model of National Cancer Institute (NCI) to analyze survival rates on pancreatic cancer cell line BxPC-3. […] Therefore, cyclohexenone compounds from Antrodia camphorata can be used for inhibiting the survival of pancreatic cancer cells and further be applied for the treatment of pancreatic cancer. The details of the examples are described as follows:
Inhibiting effects of pancreatic cancer cells by cyclohexenone compounds of Antrodia camphorata from example 1 were assessed according to the anticancer-drug screening model of National Cancer Institute (NCI). […] Survival of cell was analyzed using MTT assay. […]
The BxPC-3 cells were cultivated in RPMI 1640 medium supplemented with 10% fetal bovine serum, 100 IU/ml of Penicillin and […] of Streptomycin at 37° C., 5% CO2 for 24 hours. […] The absorbances were measured at 570 nm with an ELISA Reader to determine the survival rates.

For the compound `COC1=C(OC)C(O)C(C/C=C(\C)CC/C=C(\C)CCC=C(C)C)C(C)C1=O` (stereo not shown) [formula 2, 4--2,3-dimethoxy-6-methyl-5-(3,7,11-trimethyl-dodeca-2,6,10-trienyl)-cyclohex-2-enone], the IC50 came to 1.44 µg/mL.
